The assay concerns the target T1, Beta-glucuronidase (Bos taurus, UniProt A3KMY8).
T1 sequence (A3KMY8 whole entry): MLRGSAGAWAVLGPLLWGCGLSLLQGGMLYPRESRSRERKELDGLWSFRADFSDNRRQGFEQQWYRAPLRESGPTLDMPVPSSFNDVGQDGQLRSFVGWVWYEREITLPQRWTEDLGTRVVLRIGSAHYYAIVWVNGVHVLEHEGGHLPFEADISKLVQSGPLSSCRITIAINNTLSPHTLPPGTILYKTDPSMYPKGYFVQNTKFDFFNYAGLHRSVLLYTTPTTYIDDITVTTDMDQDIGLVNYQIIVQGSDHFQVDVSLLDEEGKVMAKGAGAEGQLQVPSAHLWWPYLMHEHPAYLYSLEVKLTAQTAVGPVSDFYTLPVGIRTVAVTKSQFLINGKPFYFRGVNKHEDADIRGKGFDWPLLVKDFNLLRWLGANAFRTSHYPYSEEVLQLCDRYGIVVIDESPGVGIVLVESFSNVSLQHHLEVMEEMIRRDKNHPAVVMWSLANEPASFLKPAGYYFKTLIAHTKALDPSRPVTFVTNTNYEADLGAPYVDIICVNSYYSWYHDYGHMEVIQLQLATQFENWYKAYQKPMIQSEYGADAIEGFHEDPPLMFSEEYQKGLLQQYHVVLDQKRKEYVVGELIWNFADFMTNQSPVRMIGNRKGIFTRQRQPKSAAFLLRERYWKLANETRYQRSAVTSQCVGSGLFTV
The experiment in a line: β-Glucuronidase Inhibition Assay. The protocol: The total reaction volume was set at 250 µL. The reaction mixture comprises of 185 µL of 0.1 M acetate buffer, 5 µL of test compound solution, 10 µL of enzyme solution and incubated at 37 °C for 30 min. […] All assays were carried out in triplicate.
Regarding `COc1ccc(O)c(-c2nc3ncc(Cl)cc3[nH]2)c1` [2-(6-Chloro-1H-imidazo[4,5-b]pyridin-2-yl)-4-methoxyphenol (13)], the IC50 was 129 µM.
With `COc1ccc(-c2nc3ncc(Cl)cc3[nH]2)c(O)c1` [2-(6-Chloro-1H-imidazo[4,5-b]pyridin-2-yl)-5-methoxyphenol (19)], the midpoint of inhibition, the IC50, lay at 114 µM.
The same measure for `Oc1cccc(-c2nc3ncc(Cl)cc3[nH]2)c1` [3-(6-Chloro-1H-imidazo[4,5-b]pyridin-2-yl)phenol (8)]: 68.1 µM; for `Oc1ccc(-c2nc3ncc(Cl)cc3[nH]2)c(O)c1` [4-(6-Chloro-1H-imidazo[4,5-b]pyridin-2-yl)benzene-1,3-diol (2)]: 49.6 µM.
In the case of `Oc1ccc(-c2nc3ncc(Cl)cc3[nH]2)cc1` [4-(6-Chloro-1H-imidazo[4,5-b]pyridin-2-yl)phenol (26)], the IC50 turned out to be 52.6 µM.

A word on the IC50: it is the midpoint of a concentration-inhibition curve. Low readings indicate greater potency in that assay, high ones weaker potency in that assay.
